Measurements as given in patent US20250127908A1, “HETEROBIFUNCTIONAL CONDITIONAL INHIBITORS” (Kolm Therapeutics Inc., priority 2023, published 2025).

Experiments:
Type in all cases: cell-based
[1] = tested on: AR and CBP or p300 ternary complex; experiment: Ternary complex formation assay (sandwich ELISA on lysates of treated VCaP cells: AR capture, CBP or p300 detection); conditions: VCaP cells treated with bifunctional for 1.5 hours; lysate; anti-AR capture, CBP or p300 antibody detection
Protocol: Example B-1: Ternary Complex Formation Assay
Preparation of Mouse Anti-AR Antibody Coated 96 Well Plates
Black MaxiSorp plates: coat with 50 μL of mouse 1/50 diluted AR antibody (Monoclonal Antibody (AR 441 from Thermo Fisher); diluted in phosphate buffered saline (PBS). Spin the liquid to the bottom of the wells, if necessary. Incubate overnight at 4° C. Next day, wash 3 times with 200 μL of TBST. Block with 200 μL of blocking buffer (5% BSA in TBST) at room temperature for 2 hours (BSA: A4503 or A2153 from Sigma). Wash plates 3 times with TBST. Plates are ready for lysates
Preparation of Dimerizer Treated Lysates
Culture cells in 96 wells at 50K VCaP cells/well for at least 3 days. Plate in 5% Omega charcoal stripped FBS in total volume of 200 uL. Treat with bifunctional for 1.5 hours by adding 1 μL of 200× stock in DMSO. Aspirate media/compound. Add and pipet-to-mix 70 μL of 1× AlphaLisa Lysis Buffer to each well (Perkin Elmer, AlphaLISA SureFire Ultra, diluted in water). Pipet up and down when adding lysis buffer to disrupt cells. Let lysis proceed for 30 min at 4° C.
Incubate for 1 hour at room temperature. Flick out the lysates. Wash 3 times with TBST. Add 75 uL of rabbit CBP or p300 antibody to each well (diluted 1:5000 in blocking buffer (5% BSA in TBST). CBP antibody: (D6C5) Rabbit mAb #7389; p300 antibody: (D8Z4E) Rabbit mAb #86377. Incubate overnight at 4° C. Wash 3 times with 300 uL TBST, each time on shaker for 5-10 min. Prepare goat anti-rabbit antibody conjugated to HRP (1/100K dilution in blocking buffer) Invitrogen Catalog number: 32260. Add 75 uL of HRP-conjugated goat anti-rabbit antibody. Incubate at room temperature for 1 hour. Flick out the HRP-antibody mixture. Wash 7-8 times with TBST, each time on shaker for 10 min. Later washes try to overflow the wells so that no residual HRP remains bound to the sides of the well. Prepare and add 75 uL/well of QuantaRed Enhance Chemifluorescent HRP Substrate solution. Immediately read fluorescence on BMG ClarioStar (ex: 570/em 585), and repeat the read in 5 minutes and 15 minutes.

[2] = tested on: VCaP cells; experiment: VCaP growth inhibition assay (CTG); conditions: Homo sapiens, 216 h, 30 pM R1881, 9-day treatment, CTG luminescence
Protocol: Example B-2: VCaP Growth Inhibition Assay
VCaP cells (ATCC Cat #CRL-2876) are plated at 1×10^4 cells per well of a white plastic 96-well cluster plate (Thermo Scientific Nunc Cat #165306) in 100 uL phenol red-free DMLEM (Gibco Cat #21063-029) media with […] (Omega Scientific Cat #FB-04). Cluster plates are returned to the incubator (37*C/5% CO2) for 72 hours prior to treatment. Just prior to treatment, 100 uL of phenol red-free DMEM/5% CSS and 60 pM Ri881 (Sigma Cat #R0908-10 mg) was added to each well of the cluster plates (Final R1881 concentration=30 pM). Compounds (200×) were added to each well in a volume of 1 uL, with serial dilutions (1:5) from 20 uM to 2 pM (final concentrations in well are 100 nM to 10 fMV). Cluster plates are returned to the incubator for 9 days.
(§1) After the 9-day treatment period, media was removed from the cluster plates by inversion and 100 uL room temperature CTG reagent (Promega Cat #G7573) is added to each well. The cluster plates are placed on a shaker and incubated at room temperature for 20 minutes. Following this shaking/incubation, cluster plates are read on a luminometer (BMG ClarioStar). IC50 values are obtained by graphing the RLU data vs. compound concentration with nonlinear regression 4-parameter logistic curves (GraphPad Prism).

[3] = tested on: HEK-293 cells; experiment: HEK-293 growth inhibition assay (CTG); conditions: Homo sapiens, HEK293, 72 h, 3-day treatment, CTG luminescence
Protocol: Example B-4: HEK-293 Growth Inhibition Assay
HEK-293 cells (ATCC Cat #CRL-1573) are plated at 3×10^3 cells per well of a white plastic 96-well cluster plate (Thermo Scientific Nunc Cat #165306) in 200 uL DMLEM (ATCC Cat #30-2002) media with 10% FBS (Gibco Cat #26140-079). Cluster plates are returned to the incubator (37*C/5% CO2) for 24 hours prior to treatment. Compounds (200×) were added to each well in a volume of 1 uL, with serial dilutions (1:5) from 2 mM to 200 pM (final concentrations in well are 10 uM to 1 pM). Cluster plates are returned to the incubator for 3 days.
as §1, with “3-day” for “9-day”, “period, 100 uL” for “period,”, “each well” for “the cluster plates”, “aspiration” for “inversion”, “added back” for “added”, “ICs50” for “IC50”

Structure (SMILES): CC(=O)N1CCc2c(c(N3CCCc4cc(C#N)ccc43)nn2C2CCN(CC3CCN(c4ccc(C5CCN(c6ccc(C#N)c(C(F)(F)F)c6)CC5)cc4)CC3)CC2)C1 [Compound 13, 1-[5-acetyl-1-[1-[[1-[4-[1-[4-cyano-3-(trifluoromethyl)phenyl]-4-piperidyl]phenyl]-4-piperidyl]methyl]-4-piperidyl]-6,7-dihydro-4H-pyrazolo[4,3-c]pyridin-3-yl]-3,4-dihydro-2H-quinoline-6-carbonitrile]
- Average Ternary Complex [1]: D (D is active and >100 nM)
- IC50 [2]: > 100 nM

Structure (SMILES): CNC(=O)N1CCc2c(c(N3CCCc4cc(-c5cnn(C)c5)c(C(F)F)cc43)nn2C2CCN(C(=O)COCCOCC3CCN(CC4CCN(c5ccc([C@H]6c7ccc(O)cc7CC[C@H]6c6ccccc6)cc5)CC4)CC3)CC2)C1 [Compound 10, 3-[7-(difluoromethyl)-6-(1-methylpyrazol-4-yl)-3,4-dihydro-2H-quinolin-1-yl]-1-[1-[2-[2-[[1-[[1-[4-(6-hydroxy-2-phenyl-tetralin-1-yl)phenyl]-4-piperidyl]methyl]-4-piperidyl]methoxy]ethoxy]acetyl]-4-piperidyl]-N-methyl-6,7-dihydro-4H-pyrazolo[4,3-c]pyridine-5-carboxamide]
- IC50 [2]: 1 to 100 nM
- IC50 [3]: > 1000 nM

Structure (SMILES): CC(=O)N1CCc2c(c(N3CCCc4cc(C#N)ccc43)nn2C2CCN(C(=O)C3CCN(c4ccc(C5CCN(c6ccc(C#N)c(C(F)(F)F)c6)CC5)cc4)CC3)CC2)C1 [Compound 12, 1-[5-acetyl-1-[1-[1-[4-[1-[4-cyano-3-(trifluoromethyl)phenyl]-4-piperidyl]phenyl]piperidine-4-carbonyl]-4-piperidyl]-6,7-dihydro-4H-pyrazolo[4,3-c]pyridin-3-yl]-3,4-dihydro-2H-quinoline-6-carbonitrile]
- Average Ternary Complex [1]: D (D is active and >100 nM)
- IC50 [2]: > 100 nM

Structure (SMILES): CC(=O)N1CCc2c(c(N3CCCc4cc(-c5cnn(C)c5)c(C(F)F)cc43)nn2C2CCN(CCCOc3ccc(C4CCN(c5ccc(C#N)c(C(F)(F)F)c5)CC4)cc3)CC2)C1 [Compound 4, 4-[4-[4-[3-[4-[5-acetyl-3-[7-(difluoromethyl)-6-(1-methylpyrazol-4-yl)-3,4-dihydro-2H-quinolin-1-yl]-6,7-dihydro-4H-pyrazolo[4,3-c]pyridin-1-yl]-1-piperidyl]propoxy]phenyl]-1-piperidyl]-2-(trifluoromethyl)benzonitrile]
- Average Ternary Complex [1]: D (D is active and >100 nM)
- IC50 [2]: > 100 nM

Structure (SMILES): CC(=O)N1CCc2c(c(-c3cccc4cc(-c5cnn(CCOC6CCN(c7ccc(C8CCN(c9ccc(C#N)c(C(F)(F)F)c9)CC8)cc7)CC6)c5)ncc34)nn2C2CCOCC2)C1 [Compound 15, 4-[4-[4-[4-[2-[4-[8-(5-acetyl-1-tetrahydropyran-4-yl-6,7-dihydro-4H-pyrazolo[4,3-c]pyridin-3-yl)-3-isoquinolyl]pyrazol-1-yl]ethoxy]-1-piperidyl]phenyl]-1-piperidyl]-2-(trifluoromethyl)benzonitrile]
- Average Ternary Complex [1]: D (D is active and >100 nM)
- IC50 [2]: 1 to 100 nM

Structure (SMILES): CC(=O)N1CCc2c(c(N3CCCc4cc(-c5cnn(C)c5)c(C(F)F)cc43)nn2C2CCN(CCCOc3ccc(-c4ccc(N5C(=S)N(c6ccc(C#N)c(C(F)(F)F)c6)C(=O)C5(C)C)cc4)cc3)CC2)C1 [Compound 1, 4-[3-[4-[4-[3-[4-[5-acetyl-3-[7-(difluoromethyl)-6-(1-methylpyrazol-4-yl)-3,4-dihydro-2H-quinolin-1-yl]-6,7-dihydro-4H-pyrazolo[4,3-c]pyridin-1-yl]-1-piperidyl]propoxy]phenyl]phenyl]-4,4-dimethyl-5-oxo-2-thioxo-imidazolidin-1-yl]-2-(trifluoromethyl)benzonitrile]
- Average Ternary Complex [1]: B (B is >1 nM and ≤10 nM)
- IC50 [2]: > 100 nM
